Measurements: patent US4565823A, “Medical agent for suppressing arteriosclerosis” (Yamanouchi Pharmaceutical Co., Ltd., priority 1982, dated 1986)
Structures can show the parent of a compound that is named as a salt.

Experiments:
[1] = tested on: cholesterol levels in the serum; assay: Effect on cholesterol levels in the serum (normal rats); assay type: in vivo; conditions: oral
[2] = tested on: cholesterol levels in the serum; assay: Effect on cholesterol levels in the serum (hypercholesterolemia rats); assay type: in vivo, Male Sprague-Dawley rats; conditions: for HDL chol. / HDL chol. / LDL + VLDL chol. / LDL + VLDL chol. / T. chol. (total cholesterol): oral; for effect on HDL cholesterol (words) / effect on total cholesterol in the serum (words): rat, in vivo
Method: Male Sprague-Dawley rats (JCL®, Nippon Clea Co. Ltd., Tokyo, Japan) weighing 90-100 g were fed semipurified diet containing 10% coconut oil, 1.5% cholesterol and 0.5% cholic acid. Three days after the start of feeding, the rats are allocated at random by the body weight to multiple groups each consisting 6-8 rats. On day 4 through 7, the drug suspension in 0.5% methylcellulose was orally given daily. […] Following the final dose, the rats were fasted overnight (approximately 16 hours). […] Serum was obtained by centrifugation at 1,600 xg for 15 min and stored at 4° C. in plastic tubes. The amount of total cholesterol and HDL cholesterol in the serum were determined. The determination of the total cholesterol was practiced by the method described in Schettler, G & Nussel; "Arbeitsmed. Sozialmed. Praventivmed." 10, 25 (1975) and the determination of HDL cholesterol was practiced by the method described in T. T. Ishikawa et al; "Lipids", 11, 628 (1976).

[3] = acute toxicity, mice (ICR); conditions: mouse, in vivo
Text: (§1) Nicardipine hydrochloride is a low toxicity compound, and this fact is confirmed by acute toxicity examination experiment.

[4] = acute toxicity, rats (Wister); conditions: rat, in vivo
Text: as §1

[5] = acute toxicity, rats (S.D.); conditions: rat, in vivo
Text: as §1

[6] = acute toxicity, dog (mongrel); assay type: in vivo; conditions: in vivo, iv, only a range in parentheses printed
Text: as §1

dog (mongrel) = assay: acute toxicity, dog (mongrel); assay type: in vivo; conditions: p.o.
Text: as §1

mice, rats, dog = assay: acute toxicity examination (overall statement); conditions: in vivo
Text: as §1

[7] = tested on: aortic smooth muscle cell; assay: 12-HETE-associated aortic smooth muscle cell migration, filter membrane technique in modified Boyden chambers; assay type: cell-based; conditions: 6×10^-15 g/ml 12-HETE, 37° C.
Text: The effect of nicardipine on 12-HETE-associated aortic smooth muscle cell migration can be examined by measuring the migration of aortic smooth muscle cell by filter membrane technique in modified Boyden chambers as follows:
5×10^5 of the smooth muscle cells were suspended in Ca^2+ -containing culture medium supplemented with 5% calf serum containing various concentration of nicardipine. Control cultures contained the same volume, a final concentration of 1% (v/v), of […]. The suspensions of the smooth muscle cells were placed in the upper compartment of the chamber. The lower compartment of the chamber contained the same culture medium supplemented with 6×10^-15 g/ml of 12-HETE and 5% calf serum containing no nicardipine. The cells was incubated at 37° C. As control, medium with the same concentration of solvent (1% ethanol) containing no 12-HETE was used. Smooth muscle cell migration was quantitated microscopically by counting the number of cells that migrated into the filter. In each experiment, 10 high-power fields in 5 replicate cultures were examined to determine the number of cells that had migrated into the filers. Cell migration was expressed as cells/10 HPF (high-power fields) in FIG. 1.

[8] = hypercholesterolemia rats, 10 mg/kg
[9] = hypercholesterolemia rats, 30 mg/kg
[10] = hypercholesterolemia rats, 100 mg/kg
[11] = listed as nicardipine hydrochloride
[12] = hypercholesterolemia rats, 50 mg/kg
[13] = hypercholesterolemia rats, 200 mg/kg

## COC(=O)C1=C(C)NC(C)=C(C(=O)OCCN(C)Cc2ccccc2)C1c1cccc([N+](=O)[O-])c1 (centres unmarked) [Nicardipine hydrochloride]
[1]; 10 mg/kg
  HDL chol.: 29.6 ± 1.4 mg/dL
  HDL chol. / LDL + VLDL chol.: 3.020
  LDL + VLDL chol.: 9.8 ± 1.9 mg/dL
  T. chol. (total cholesterol): 39.4 ± 2.0 mg/dL
[1]; 30 mg/kg
  HDL chol.: 37.2 ± 2.7 mg/dL
  HDL chol. / LDL + VLDL chol.: 10.941
  LDL + VLDL chol.: 3.4 ± 1.6 mg/dL
  T. chol. (total cholesterol): 41.3 ± 4.7 mg/dL
[1]; 100 mg/kg
  HDL chol.: 39.8 ± 4.3 mg/dL
  HDL chol. / LDL + VLDL chol.: 14.214
  LDL + VLDL chol.: 2.8 ± 1.2 mg/dL
  T. chol. (total cholesterol): 40.8 ± 5.9 mg/dL
[2]; hypercholesterolemia rats
  effect on LDL chol: reduces remarkably LDL chol
[2]; [8]
  HDL chol.: 27.0 ± 1.8 mg/dL
  HDL chol. / LDL + VLDL chol.: 0.090
  LDL + VLDL chol.: 299.4 ± 52.8 mg/dL
  T. chol. (total cholesterol): 326.4 ± 52.0 mg/dL
[2]; [9]
  HDL chol.: 28.0 ± 0.5 mg/dL
  HDL chol. / LDL + VLDL chol.: 0.067
  LDL + VLDL chol.: 420.6 ± 53.2 mg/dL
  T. chol. (total cholesterol): 448.6 ± 52.8 mg/dL
[2]; [10]
  HDL chol.: 47.0 ± 1.8 mg/dL
  HDL chol. / LDL + VLDL chol.: 0.250
  LDL + VLDL chol.: 188.0 ± 26.4 mg/dL
  T. chol. (total cholesterol): 246.0 ± 24.6 mg/dL
[2]; [11]
  effect on HDL cholesterol (words): increases selectively HDL chol
  effect on total cholesterol in the serum (words): reduce the amount of total cholesterol in the serum
[3]; iv, mice (ICR) female
  LD50: 19.9 mg/kg
[3]; po, mice (ICR) female
  LD50: 650 mg/kg
[3]; po, mice (ICR) male
  LD50: 634 mg/kg
[3]; sc, mice (ICR) female
  LD50: 710 mg/kg
[3]; sc, mice (ICR) male
  LD50: 540 mg/kg
[4]; iv, rats (Wister) female
  LD50: 17.2 mg/kg
[4]; iv, rats (Wister) male
  LD50: 15.5 mg/kg
[4]; po, rats (Wister) female
  LD50: 184 mg/kg
[4]; po, rats (Wister) male
  LD50: 187 mg/kg
[4]; sc, rats (Wister) female
  LD50: 606 mg/kg
[4]; sc, rats (Wister) male
  LD50: 677 mg/kg
[5]; iv, rats (S.D.) female
  LD50: 25 mg/kg
[5]; iv, rats (S.D.) male
  LD50: 18.1 mg/kg
[5]; po, rats (S.D.) female
  LD50: 557 mg/kg
[5]; po, rats (S.D.) male
  LD50: 643 mg/kg
[6]
  LD50: 5 to 8.1 mg/kg
Dog (mongrel)
  MLD: > 60 mg/kg
mice, rats, dog
  acute toxicity: low toxicity

## CCOC(=O)C(C)(C)Oc1ccc(Cl)cc1 [clofibrate]
[1]; 50 mg/kg
  HDL chol.: 26.5 ± 2.5 mg/dL
  HDL chol. / LDL + VLDL chol.: 1.828
  LDL + VLDL chol.: 14.5 ± 1.0 mg/dL
  T. chol. (total cholesterol): 42.7 ± 2.3 mg/dL
[1]; 100 mg/kg
  HDL chol.: 30.3 ± 3.1 mg/dL
  HDL chol. / LDL + VLDL chol.: 3.258
  LDL + VLDL chol.: 9.3 ± 1.5 mg/dL
  T. chol. (total cholesterol): 39.7 ± 2.7 mg/dL
[1]; 200 mg/kg
  HDL chol.: 22.8 ± 2.7 mg/dL
  HDL chol. / LDL + VLDL chol.: 1.664
  LDL + VLDL chol.: 13.7 ± 2.1 mg/dL
  T. chol. (total cholesterol): 36.5 ± 4.4 mg/dL
[2]; [12]
  HDL chol.: 13.8 ± 1.0 mg/dL
  HDL chol. / LDL + VLDL chol.: 0.036
  LDL + VLDL chol.: 379.6 ± 92.6 mg/dL
  T. chol. (total cholesterol): 412.0 ± 77.8 mg/dL
[2]; [10]
  HDL chol.: 21.0 ± 2.5 mg/dL
  HDL chol. / LDL + VLDL chol.: 0.100
  LDL + VLDL chol.: 210.4 ± 55.8 mg/dL
  T. chol. (total cholesterol): 231.0 ± 54.2 mg/dL
[2]; [13]
  HDL chol.: 19.3 ± 2.8 mg/dL
  HDL chol. / LDL + VLDL chol.: 0.065
  LDL + VLDL chol.: 298.0 ± 66.2 mg/dL
  T. chol. (total cholesterol): 317.4 ± 64.4 mg/dL

## COC(=O)C1=C(C)NC(C)=C(C(=O)OCCN(C)Cc2ccccc2)C1c1cccc([N+](=O)[O-])c1 (centres unmarked) [nicardipine]
[2]
  effect on HDL cholesterol (words): elevating high density lipoprotein (HDL) selectivity
  effect on total cholesterol in the serum (words): reducing cholesterol level increased in the serum
[7]
  inhibition of 12-HETE-associated aortic smooth muscle cell migration: inhibits 12-HETE-associated aortic smooth muscle cell migration (aortic smooth muscle cell migration induced by 12-L-hydroxy-5,8,10,14-eicosotetraenoic acid) significantly

## COc1ccc(Cc2nccc3cc(OC)c(OC)cc23)cc1OC [papaverine]
[3]; iv, mice (ICR) male
  LD50: 27 mg/kg
[4]; iv, rats (Wister) male
  LD50: 13.3 mg/kg
